# “Also recorded” adds a separate entry of the source.
# How the values were obtained:
# T47D cells = assay: AAV3 vector transduction of T47D cells; type: cell-based, human; settings: 1 μM, 2 hr; 10,000 vg/cell
# Text: (§1) Cell Lines and Cultures. Human cervical cancer (HeLa) and hepatocellular carcinoma (Huh7) cell lines were purchased from American Type Culture Collection (Manassas, Va., USA), and maintained in complete DMEM medium (Mediatech, Inc., Manassas, Va., USA) supplemented with 10% heat-inactivated fetal bovine serum (FBS, Sigma-Aldrich Co.), 1% penicillin and streptomycin (P/S, Lonza, Inc.). A newly established human hepatoblastoma (Hep293TT) cell line (Chen et al., 2009) was maintained in complete RPMI medium 1640 (Invitrogen, Inc.) supplemented with 15% heat-inactivated FBS (Sigma-Aldrich Co.), 1% penicillin and streptomycin (P/S, Lonza, Inc.). Cells were grown as adherent cultures in a humidified atmosphere at 37° C. in 5% CO2 and were sub-cultured after treatment with trypsin-versene mixture (Lonza, Inc.) for 2-5 min at room temperature, washed and re-suspended in complete medium. […]
# (§2) Human HGFR is required for AAV3 infectivity. […] Equivalent numbers of T47D and T47D+hHGFR cells were transduced with various multiplicities-of-infection (MOI) of self-complementary (sc) AAV3-CBAp-EGFP vectors under identical conditions and transgene expression was determined 72 hr post-transduction.
# T47D+hHGFR cells = assay: AAV vector transduction of T47D+hHGFR cells; type: cell-based, human
# Text: as §1, §2
# HGFR kinase = molecular target: T1, HGFR kinase (Homo sapiens, UniProt P08581); assay: Western blot of HGFR phosphorylation and downstream signaling; type: cell-based; settings: T47D+hHGFR cells
# T1 construct: expressed in transfected cells; host or cells: T47D human breast cancer cells stably transfected with a hHGFR expression plasmid (T47D+hHGFR); parental T47D as control
# T1 sequence (P08581 25-1390): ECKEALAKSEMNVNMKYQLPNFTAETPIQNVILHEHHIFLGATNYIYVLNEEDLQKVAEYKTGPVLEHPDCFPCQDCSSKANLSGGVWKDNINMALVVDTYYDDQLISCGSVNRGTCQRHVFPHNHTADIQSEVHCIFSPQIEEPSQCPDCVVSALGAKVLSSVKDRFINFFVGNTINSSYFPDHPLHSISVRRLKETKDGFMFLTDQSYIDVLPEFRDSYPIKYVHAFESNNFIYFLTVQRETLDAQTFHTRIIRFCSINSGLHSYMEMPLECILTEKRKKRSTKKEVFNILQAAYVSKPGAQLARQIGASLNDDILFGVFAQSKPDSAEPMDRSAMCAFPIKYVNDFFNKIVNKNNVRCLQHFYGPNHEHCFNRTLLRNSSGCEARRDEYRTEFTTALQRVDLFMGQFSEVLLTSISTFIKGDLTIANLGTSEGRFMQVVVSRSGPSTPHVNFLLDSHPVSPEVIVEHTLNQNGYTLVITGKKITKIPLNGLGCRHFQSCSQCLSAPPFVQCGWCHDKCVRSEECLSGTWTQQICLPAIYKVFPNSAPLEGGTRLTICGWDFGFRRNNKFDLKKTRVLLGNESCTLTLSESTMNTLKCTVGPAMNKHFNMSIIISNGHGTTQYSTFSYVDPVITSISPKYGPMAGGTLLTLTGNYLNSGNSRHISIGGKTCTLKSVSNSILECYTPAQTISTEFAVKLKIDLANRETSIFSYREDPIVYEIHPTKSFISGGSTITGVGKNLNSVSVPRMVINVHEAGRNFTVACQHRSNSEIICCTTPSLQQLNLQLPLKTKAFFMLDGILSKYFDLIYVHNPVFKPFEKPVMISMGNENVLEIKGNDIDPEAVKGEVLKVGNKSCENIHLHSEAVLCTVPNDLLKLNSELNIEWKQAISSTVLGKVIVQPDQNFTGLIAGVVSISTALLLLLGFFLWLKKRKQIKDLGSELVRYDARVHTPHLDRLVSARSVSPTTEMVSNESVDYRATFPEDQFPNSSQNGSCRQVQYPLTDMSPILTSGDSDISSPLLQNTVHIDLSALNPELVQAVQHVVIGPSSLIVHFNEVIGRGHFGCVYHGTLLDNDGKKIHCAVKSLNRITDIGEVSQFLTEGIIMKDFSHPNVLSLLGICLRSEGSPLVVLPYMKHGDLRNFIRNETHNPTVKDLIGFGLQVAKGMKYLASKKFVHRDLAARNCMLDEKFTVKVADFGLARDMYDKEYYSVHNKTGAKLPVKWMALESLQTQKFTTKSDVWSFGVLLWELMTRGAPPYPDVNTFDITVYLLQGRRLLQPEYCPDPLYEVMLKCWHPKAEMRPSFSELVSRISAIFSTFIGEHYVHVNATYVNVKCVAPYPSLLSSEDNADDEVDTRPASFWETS
# Description: Cells were harvested and disrupted in a radio-immunoprecipitation assay (RIPA) lysis buffer (50 mM Tris-HCl, pH 8.0, 150 mM NaCl, 0.1% SDS, 1% NP-40, 0.25% sodium deoxycholate and 1 mM EDTA with protease inhibitor cocktail, 1 mM NaF and 1 mM Na3VO4). Total protein concentration was measured using a Bradford reagent (Bio-Rad) and equal amounts (50 μg) of whole cell lysates were resolved by SDS-PAGE. After electrophoresis, samples were electro-transferred to a nitrocellulose membrane (Bio-Rad), probed with relevant primary antibodies at 4° C. overnight, incubated with horseradish peroxidase-conjugated secondary antibodies (Jackson ImmunoResearch, West Grove, Pa., USA), and detected with an enhanced chemi-luminescence substrate (Amersham). […]
# To examine whether inhibition of the HGFR kinase led to alterations in the phosphorylation status of specific cellular proteins involved in the downstream signaling pathway total and phosphorylation levels of the HGFR protein in both T47D and T47D+hHGFR lysates were determined following a 2-hr drug-incubation period. Activation of signaling pathways downstream from HGFR kinase, ERK1/2 and Akt, were analyzed using phosphorylation-specific antibodies.
# HeLa cells [1] = assay: AAV-EGFP transduction of HeLa cells in the presence of NF-κB modulators; type: cell-based, human; settings: HeLa, scAAV-EGFP
# Description: (§3) Recombinant AAV Vector Transduction Assays in Vitro. Optimal concentration of NF-κB-modulating compounds was determined by a cell viability assay with tenfold-dilutions from the IC50 or were used as described previously (Wu and Miyamoto, 2008; Kumar et al., 2008). VP16 or Bay11 (10 or 5 μM, final concentration), and PDTC (50 or 25 μM final concentration) were used either alone or in activator/inhibitor combinations. For transduction experiments, approximately 1×10^5 HeLa cells were either pre-treated with these compounds 24 hrs prior to vector infection. Cells were transduced with 500 or 2,000 vector genomes (vgs) per cell of recombinant WT-AAV or TM-AAV vectors encoding the EGFP transgene as described previously (Markusic et al., 2010). After 7 days of culture, primary human dendritic cells were transduced with AAV vectors at 2000 vgs/cell and incubated for 48 hrs. Transgene expression was assessed as total area of green fluorescence (pixel^2) per visual field (mean±SD), or by flow cytometry. Analysis of variance (ANOVA) was used to compare between test results and the control and they were determined to be statistically significant.
# [2] = test system: primary human dendritic cells; assay: AAV-EGFP transduction of primary human dendritic cells with NF-κB modulators (flow cytometry); type: cell-based
# Description: as §3
# Cells, Antibodies and Chemicals. […]
# [3] = test system: primary human dendritic cells; assay: FACS analyses of markers of maturation (CD83, CD86) of primary human dendritic cells; type: cell-based
# Description: Cells, Antibodies and Chemicals. HeLa cells were obtained from the American Type Culture Collection (Rockville, Md., USA) and maintained as monolayer cultures in Iscove's-modified Dulbecco's medium (IMDM, Invitrogen, Inc., Carlsbad, Calif., USA) supplemented with 10% newborn calf serum (NCS) (Lonza, Inc., Basel, SWITZERLAND) and antibiotics. Leukapheresis-derived PBMCs were resuspended in serum-free AIM-V medium (Lonza, Inc.) and semi-adherent cell fractions were incubated in serum-free AIM-V medium supplemented with recombinant human IL-4 (500 U/mL) and GM-CSF (800 U/mL) (R&D Systems, MN, USA). Cells were treated with NF-κB modulators ([…]), and cytokines cocktail including 10 ng/mL TNF-α, 10 ng/mL IL-1, 10 ng/mL IL-6, […] (R&D Systems) for 20 hr. Cells were harvested, characterized to ensure they met the typical phenotype of mature DCs (CD83, RPE, murine IgG1, CD86, FITC, murine IgG1; Invitrogen, Inc.). All primary and secondary antibodies were purchased from Cell Signaling Technology, Inc. (Danvers, Mass., USA) or Santa Cruz Biotechnology, Inc (Santa Cruz, Calif., USA). NF-kB activators [Etoposide (VP16), Aphidicolin, Hydroxyurea (HU)] and NF-kB inhibitors [Bay11-7082 (Bay11), Pyrrolidine dithiocarbamate (PDTC)] were purchased from Sigma-Aldrich Co. (St. Louis, Mo., USA). These compounds were re-suspended in either DMSO (Sigma-Aldrich Co.) or in sterile, DNAase-, RNAase-free water (Invitrogen, Inc.) as per the manufacturer's instructions.
# [4] = test system: non-canonical NF-κB pathway (p100, p52); assay: Western blot of NF-κB pathway components in HeLa cells; type: cell-based, human; settings: in the presence of VP16
# Text: Western Blot Analyses. Homogenized lysates of the cell pellets from ˜2×10^6 HeLa cells or DCs, mock or pre-treated with the optimal concentration of NF-κB activators or inhibitors were used for sample preparation. Whole cell proteins were isolated using the RIPA lysis buffer (Sigma-Aldrich Co.) and cytoplasmic and nuclear proteins were extracted using a commercial kit (NE-PER Extraction Reagent Kit, Pierce Biotech, Rockford, Ill., USA) as per the manufacturer's protocol in the presence of a protease inhibitor cocktail (Halt™ Protease Inhibitor Cocktail Kit, Pierce Biotech). The protein extracts were boiled for 5 min under reducing conditions [SDS-sample buffer containing 62.5 mM Tris-HCl (pH 6.8 at 25° C.), 2% wt./vol. SDS, 10% glycerol, 50 mM DTT, 0.01% wt./vol. bromo-phenol blue (Cell Signaling Technology, Inc.)] and stored at −86° C. until further analysis. Equal volumes of samples were run on 4-15% SDS-PAGE (Bio-Rad, Hercules, Calif., USA). […] The intensity of the protein bands was measured with Adobe Photoshop CS3 Software® and normalized to proteins levels from the housekeeping gene products used as loading controls.
# K562 cells = assay: AAV6 transduction of K562 cells after enzyme / inhibitor treatment; type: cell-based, human
# Text: More recently, Denard et al. reported that galectin-3-binding protein in human sera agglutinates AAV6 vectors, which results in decreased transduction efficiency of these vectors. […] The identity of the putative receptor for AAV6 vectors in human CD34^+ cells remains elusive, and additional studies are warranted. […] The implication is that AAV6 uses a protein rather than a lipid on K562 cells for binding and entry into these cells. In addition, because AAV6 is known to have evolved from recombination between AAV1 and AAV2, and because AAV2 uses heparan sulfateproteoglycan (HSPG) as the primary cellular receptor, the level of HSPG expression on K562 cells surface was examined by FACS. […] The effect of inhibitors of O-linked and N-linked glycosylation was also evaluated on the transduction efficiency of AAV6 vectors in K562 cells.
# HeLa cells [5] = assay: Recombinant AAV2 vector transduction assay in vitro (EGFP imaging); type: cell-based, human
# Description: Recombinant AAV2 Vector Transduction Assays in Vitro. Approximately 1×10^5 HeLa cells were used for transductions with recombinant AAV2 vectors. The transduction efficiency was measured 48-hr post-transduction by EGFP imaging using fluorescence microscopy. Images from three to five visual fields were analyzed quantitatively by ImageJ analysis software (NIH, Bethesda, Md., USA). Transgene expression was assessed as total area of green fluorescence (pixel^2) per visual field (mean±SD). Analysis of variance (ANOVA) was used to compare between test results and the control and they were determined to be statistically significant.
# The transduction efficiency of each of the tyrosine-mutant vectors was analyzed and compared with the WT scAAV2-EGFP vector in HeLa cells in vitro under identical conditions. […] Specifically, the transduction efficiency of Y444F, Y500F, Y730F vectors was ˜8- to 11-fold higher than the WT vector.
# In a second study, HeLa cells, either mock-treated or treated with Tyr23, a specific inhibitor of EGFR-PTK, or MG132, a proteasome inhibitor, both known to increase the transduction efficiency of AAV vectors, were mock-infected or infected with the WT or Y730F scAAV2-EGFP vectors.
# HeLa cells [6] = assay: scAAV2 transduction of HeLa cells with MG132 or Tyr23 (positive control); type: cell-based, human; settings: MG132 5 μM; Tyr23 200 μM
# Description: (§4) AAV Vector Transduction Assays. Huh7 or HeLa cells were seeded in 96-well plates at a concentration of 5,000 cells per well in complete DMEM medium. AAV infections were performed in serum- and antibiotic-free DMEM medium. Hep293TT cells were seeded in 96-well plates at a concentration of 10,000 cells per well in complete RPMI medium. The infections were performed in serum- and antibiotic-free RPMI medium. The expression of EGFP was analyzed by direct fluorescence imaging 72 hrs' post-transduction.
# Proteasome Inhibitors Increase the Transduction Efficiency of AAV3 Vectors. […] To evaluate whether MG132 can also improve AAV3 trafficking in target cells, Huh7, a well-established human hepatocellular carcinoma cell line (Nakabayashi et al., 1982), and Hep293TT, a recently established human hepatoblastoma cell line (Chen et al., 2009), were either mock-treated or treated with increasing concentrations of MG132. […] Transgene expression was determined by fluorescence microscopy 72 hrs post-transduction.
# Previous studies have also shown that inhibition of EGFR-PTK signaling by Tyrphostin 23 (Tyr23), a specific inhibitor of EGFR-PTK (May et al., 1998), modulates the Ub/proteasome pathway, which in turn, facilitates intracellular trafficking and transgene expression mediated by AAV2 vectors (Zhong et al., 2007). […] Transgene expression was determined 72 hr post-transduction.
# Hep293TT cells = assay: AAV3 vector transduction assay in Hep293TT cells; type: cell-based, human
# Description: as §4
# [7] = Mature DCs + AAV + Cytokines + modulator
compound,measurement,setting,value
"CCOc1ccn(-c2ccc(F)cc2)c(=O)c1C(=O)Nc1ccc(Oc2ccnc(N)c2Cl)c(F)c1 [BMS-777607, N-(4-(2-amino-3-chloropyridin-4-yloxy)-3-fluorophenyl)-4-ethoxy-1-(4-fluorophenyl)-2-oxo-1,2-dihydropyridine-3-carboxamide]",AAV3 infectivity,T47D cells,no effect
same,AAV3 infectivity,"T47D+hHGFR cells; 1 μM, 2 hr, 10,000 vg/cell",significantly enhanced
same,expression of phosphorylated AKT and ERK1/2,HGFR kinase,no effect
same,phosphorylation of HGFR,HGFR kinase; 2-hr incubation,completely blocked
"S=C(S)N1CCCC1 [PDTC, Pyrrolidine dithiocarbamate]","AAV vector-mediated EGFP expression, fold augmentation",HeLa cells [1],had no effect; also recorded: no noticeable effect
"COc1cc([C@@H]2c3cc4c(cc3[C@@H](O[C@@H]3O[C@@H]5CO[C@@H](C)O[C@H]5[C@H](O)[C@H]3O)[C@H]3COC(=O)[C@H]23)OCO4)cc(OC)c1O [VP16, Etoposide]",EGFP expression increase compared with scAAV vector-transduced DCs,[2],~20 fold
same,"maturation of DCs (CD83, CD86)",[3],not able to induce maturation
same,Geometric means of levels of expression in cells expressing CD83,[3]; DCs without cytokines,16.48
same,Geometric means of levels of expression in cells expressing CD86,[3]; DCs without cytokines,13.70
same,Geometric means of levels of expression in cells expressing CD83,[3]; [7],19.92
same,Geometric means of levels of expression in cells expressing CD86,[3]; [7],21.92
same,increase in cytosolic p100 and nuclear p52,[4],3- to 6 fold
phospholipase A2,effect on AAV6 vector-mediated transduction of K562 cells,K562 cells,no significant change
tunicamycin,effect on AAV6 vector-mediated transduction of K562 cells,K562 cells,markedly reduced
"N#CC(C#N)=Cc1ccc(O)c(O)c1 [Tyr23, Tyrphostin 23]",increase in transduction efficiency of WT scAAV2-EGFP by pretreatment,HeLa cells [5],~9 fold
same,transduction efficiency of scAAV2 vectors after pretreatment,HeLa cells [6],significant increase
same,amounts of internalized viral DNA in presence or absence of inhibitor,Hep293TT cells,no significant difference
same,transduction efficiency of scAAV3 vectors after treatment,Hep293TT cells; 2 hr treatment,significant increase
hHGF: human hepatocyte growth factor,AAV3 vector-mediated transduction in the presence of hHGF,"T47D+hHGFR cells; 5 μg/mL hHGF, 2,000 vgs/cell",completely blocked
heparin,effect on AAV6 vector-mediated transduction of K562 cells,K562 cells,could not be inhibited

# — patent publication US12358954B2, “Capsid-modified rAAV vector compositions and methods therefor” (priority 2012, dated 2025)
